According to US4206125A, “5-[2-[(2,3-Dihydro-1,4-benzodioxan-2-ylmethyl)amino]-1-hydrox yethyl]-2-hydroxybenzoic acid derivatives” (Richardson-Merrell Inc., priority 1979, dated 1980):

Assays:
[1] = tested on: systolic blood pressure of spontaneously hypertensive rats (SHR); experiment: Antihypertensive activity in spontaneously hypertensive rats (SHR); format: in vivo, rat; conditions: SHR Okomoto-Aoki strain; oral dose of 50 mg/kg; one hour following administration
Procedure: Antihypertensive activity is determined in spontaneously hypertensive rats (SHR) of the Okomoto-Aoki strain. Systolic blood pressure of the SHR is measured from the caudal artery by means of an indirect method utilizing a photocell transducer/trail cuff occluder system. Time response relationships are determined for each compound following an oral dose of 50 mg/kg. Data are expressed as mm of Hg decrease from control values. Statistical significance is determined using a 2 tailed "t" test comparing drug treatment response values to those obtained from concurrent vehicle treated animals. Under these conditions the compound 5-[2-[(2,3-dihydro-1,4-benzodioxan-2-ylmethyl)amino]-1-hydroxyethyl]-2-hydroxybenzamide lowered blood pressure by 24 mm of Hg one hour following administration of the drug substance.

α-Adrenergic receptor = α-Adrenergic receptor blocking activity, isolated rabbit aortic strip, norepinephrine as agonist; format: cell-based; conditions: contractile response
Procedure: α-Adrenergic receptor blocking activity is determined in vitro by performing cumulative dose-response experiments in the isolated rabbit aortic strip preparation using norepinephrine as the agonist. The contractile response of the rabbit strip preparation in the presence of logarithmically increasing concentrations of the compounds being tested are expressed as percent of the maximal attainable response. Relative antagonistic potency is expressed as a pA2 value.

β-Adrenergic receptor = target: T1, β-Adrenergic receptor (Cavia porcellus, UniProt H0W3H1); experiment: β-Adrenergic receptor blocking activity, isolated guinea pig atria, isoproterenol as agonist; format: cell-based; conditions: increase in rate, read-out: pA2 value (β-adrenergic receptor blocking activity) (converted)
T1 construct: isolated guinea pig atria preparation; from tissue; host or cells: isolated guinea pig atria
Procedure: β-Adrenergic receptor blocking activity is determined in vitro by performing cumulative dose-response experiments in the isolated guinea pig atria preparation using isoproterenol as the agonist. The response (increase in rate) of the guinea pig atria preparation in the presence of logarithmically increasing concentrations of the compounds being tested are expressed as percent of the maximal attainable response. Relative antagonistic potency is expressed as a pA2 value, as defined above.

T1 sequence (H0W3H1 1-470): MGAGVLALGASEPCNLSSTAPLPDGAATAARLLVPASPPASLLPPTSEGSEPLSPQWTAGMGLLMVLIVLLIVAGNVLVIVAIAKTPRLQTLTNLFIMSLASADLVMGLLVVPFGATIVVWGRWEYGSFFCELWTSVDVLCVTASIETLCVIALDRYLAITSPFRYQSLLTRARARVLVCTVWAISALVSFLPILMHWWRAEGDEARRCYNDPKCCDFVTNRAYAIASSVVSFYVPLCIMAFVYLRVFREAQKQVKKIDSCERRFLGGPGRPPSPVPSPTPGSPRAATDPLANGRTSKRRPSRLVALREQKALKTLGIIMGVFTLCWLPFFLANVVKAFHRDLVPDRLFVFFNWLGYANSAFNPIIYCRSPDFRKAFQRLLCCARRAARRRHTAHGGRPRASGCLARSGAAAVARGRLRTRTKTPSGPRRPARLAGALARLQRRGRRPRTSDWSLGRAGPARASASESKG

- Kb (β-Adrenergic receptor): 1450 nM
SMILES: NC(=O)c1cc(C(O)CNCC2COc3ccccc3O2)ccc1O (stereo not drawn) [5-[2-[(2,3-dihydro-1,4-benzodioxan-2-ylmethyl)amino]-1-hydroxyethyl]-2-hydroxybenzamide]
- systolic blood pressure decrease from control values [1]: 24 mm of Hg
- pA2 value (α-adrenergic receptor blocking activity) (α-Adrenergic receptor): 6.20
